According to paper PMC3584946, “Three-component synthesis of pyrano[2,3-d]-pyrimidine dione derivatives facilitated by sulfonic acid nanoporous silica (SBA-Pr-SO3H) and their docking and urease inhibitory activity” (DARU Journal of Pharmaceutical Sciences, 2013):
Like-named read-outs stand apart in the source and are kept apart here.

Target: Jack bean urease (Canavalia ensiformis, UniProt P07374)
Assay: phenol red urease assay, […] nm
Format: biochemical
[1] = 100 mM urea, 10 mM phosphate pH 7.0, 37°C, 30 min, read-out: IC50

Sequence of Jack bean urease (P07374 whole entry): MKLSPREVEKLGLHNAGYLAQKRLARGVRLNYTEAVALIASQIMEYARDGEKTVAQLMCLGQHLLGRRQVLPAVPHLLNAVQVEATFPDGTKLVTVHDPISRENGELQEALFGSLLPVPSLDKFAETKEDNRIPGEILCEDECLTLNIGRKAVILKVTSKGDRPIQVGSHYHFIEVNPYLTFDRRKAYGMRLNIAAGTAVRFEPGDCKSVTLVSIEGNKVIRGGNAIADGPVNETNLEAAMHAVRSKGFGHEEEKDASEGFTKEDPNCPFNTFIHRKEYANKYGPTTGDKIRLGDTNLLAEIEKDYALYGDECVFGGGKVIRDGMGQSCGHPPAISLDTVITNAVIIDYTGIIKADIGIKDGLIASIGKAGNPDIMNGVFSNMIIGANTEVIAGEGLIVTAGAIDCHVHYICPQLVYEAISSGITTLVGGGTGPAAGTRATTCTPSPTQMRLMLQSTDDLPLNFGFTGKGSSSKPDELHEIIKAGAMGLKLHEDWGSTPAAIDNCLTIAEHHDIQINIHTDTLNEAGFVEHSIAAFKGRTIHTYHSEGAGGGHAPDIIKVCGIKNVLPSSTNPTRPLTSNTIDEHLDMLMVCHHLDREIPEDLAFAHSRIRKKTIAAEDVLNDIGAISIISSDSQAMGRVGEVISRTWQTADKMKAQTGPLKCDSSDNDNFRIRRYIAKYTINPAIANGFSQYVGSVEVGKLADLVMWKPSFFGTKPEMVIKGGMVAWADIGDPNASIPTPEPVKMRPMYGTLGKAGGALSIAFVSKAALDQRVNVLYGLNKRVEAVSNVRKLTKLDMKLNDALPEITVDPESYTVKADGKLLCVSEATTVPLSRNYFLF

COc1cccc(C2C(C#N)=C(N)Oc3[nH]c(=O)[nH]c(=O)c32)c1 (stereo not drawn) [4h, 7-Amino-6-cyano-5-(3-methoxylphenyl)-5H-pyrano[2,3-d]pyrimidine-2,4(1H,3H)-diones]
IC50: 106 µM

Cc1cccc(C2C(C#N)=C(N)Oc3[nH]c(=O)[nH]c(=O)c32)c1 (stereo not drawn) [4f, 7-Amino-6-cyano-5-(3-methylphenyl)-5H-pyrano[2,3-d]pyrimidine-2,4(1H,3H)-diones]
IC50 [1]: 41.1 µM

N#CC1=C(N)Oc2[nH]c(=O)[nH]c(=O)c2C1c1c(Cl)cccc1Cl (stereo not drawn) [4k, 7-Amino-6-cyano-5-(2,6-dichlorophenyl)-5H-pyrano[2,3-d]pyrimidinone]
IC50 [1]: 41 µM
